Experimental data reported in publication PMC7697893, “Novel 1-Amidino-4-Phenylpiperazines as Potent Agonists at Human TAAR1 Receptor: Rational Design, Synthesis, Biological Evaluation and Molecular Docking Studies” (Pharmaceuticals, 2020).
Structures can show the parent of a compound that is named as a salt. Where two headings read alike, the source gives them in different places. One block for each compound: values may come before it.

Assays:
mTAAR1 = test system: mTAAR1; design: method as in PMID 27823885, PMID 29407948; conditions: Figure 2, biguanides SET1 and SET2; cited from earlier work
hTAAR1 [1] = molecular target: T1, hTAAR1 (Homo sapiens, UniProt Q96RJ0); assay: Functional activity at hTAAR1, cAMP BRET biosensor in HEK-293T cells; assay type: cell-based; conditions: for Emax at 10 µM: HEK-293T, read-out: hTAAR1 Activity
T1 construct: expressed in transfected cells; host or cells: HEK-293T (ATCC)
T1 sequence (Q96RJ0 1-339): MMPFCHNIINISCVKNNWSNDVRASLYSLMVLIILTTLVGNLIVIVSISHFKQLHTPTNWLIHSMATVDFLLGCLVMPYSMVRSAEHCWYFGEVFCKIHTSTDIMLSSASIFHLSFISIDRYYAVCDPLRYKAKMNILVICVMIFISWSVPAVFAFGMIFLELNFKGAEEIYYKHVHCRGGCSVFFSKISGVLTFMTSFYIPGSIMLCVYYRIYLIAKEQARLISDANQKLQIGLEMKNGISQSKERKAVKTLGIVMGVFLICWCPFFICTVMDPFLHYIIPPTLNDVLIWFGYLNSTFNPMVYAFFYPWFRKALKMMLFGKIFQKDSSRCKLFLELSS
Experimental: The activity of the compounds was measured using human embryonic kidney 293 (HEK-293T) cells co-transfected with plasmids encoding hTAAR1 and a cAMP Bioluminescence Resonance Energy Transfer (BRET) biosensor, or empty vector as a control. TYR was used as a positive control for agonism. Firstly, all the compounds were tested at 10 μM either for agonistic or antagonistic activity.
BRET screening was described in detail elsewhere. HEK-293T (ATCC) cells were transiently сo-transfected with plasmids encoding hTAAR1 and a cAMP BRET biosensor using Lipofectamine® (ThermoFisher) reagent, and then plated in 96-well plates (Corning) at […] per well. On the following day, culture medium was removed and 70 μL of phosphate-buffered saline containing calcium and magnesium was added to each well, followed by the addition of 10 μL […] 3-isobutyl-1-methylxanthine solution (Sigma), and 10 μL 50 μM coelenterazine-h solution (Promega). All tested compounds were dissolved in DMSO to yield 10 mM stock solutions. After 10 min incubation, either 10 μL of vehicle or 10× of the concentrated solution of compound to be tested (10 μM final concentration) was added. Readings were collected using a Mithras LB943 multimodal plate reader (Berthold Technologies). The BRET signal is determined by calculating the ratio of the light emitted at 505 to 555 nm to the light emitted at 465 to 505 nm.
Curves were fitted by applying non-linear regression models on GraphPad Prism 6 (GraphPad Software).

[2] = Cell cytotoxicity assay (MTT) on Vero-76 cells; assay type: cell-based, Cercopithecus Aethiops; conditions: Cercopithecus aethiops (African green monkey), Vero-76 cells; MTT method, 48–96 h; CC50±SEM
Experimental: (§1) Vero-76 cells (ATCC CRL 1587 Cercopithecus Aethiops) were seeded at an initial density of 4 × 10^5 cells/mL in 24-well plates, in culture medium (Dulbecco’s Modified Eagle Medium (D-MEM) with L-glutamine, supplemented with fetal bovine serum (FBS), 0.025 g/L kanamycin). Cell cultures were then incubated at 37 °C in a humidified, 5% CO2 atmosphere in the absence or presence of serial dilutions of test compounds. Cell viability was determined after 48–96 h at 37 °C by the MTT staining method. The results are expressed as CC50, which is the concentration of compound necessary to inhibit cell growth by 50%. Each CC50 value is the mean and standard deviation of at least three separate experiments performed in duplicate.

[3] = design: method as in PMID 5719030; conditions: potentiating pressor effect of tyramine and NE; cited from earlier work
hTAAR1 [4] = molecular target: T1, hTAAR1
Vero-76 cells = assay: Cell cytotoxicity assay (MTT) on Vero-76 cells; assay type: cell-based, Cercopithecus Aethiops; conditions: ratio of Vero-76 CC50 to hTAAR1 EC50
Experimental: as §1

[5] = cited from earlier work
human hepatocyte = conditions: cited from earlier work
[6] = design: method as in PMID 5169226; conditions: rats, intraperitoneal, 100 mg/kg; cited from earlier work
[7] = as compared with 1 µM TYR (full agonism), compounds tested at 10 μM
[8] = Figure 2, biguanides SET1 and SET2; read-out: hTAAR1 EC50; cited from earlier work
[9] = dose–response 10 nM to 10 μM, means of 4 experiments, errors within 10%, read-out: hTAAR1 EC50
[10] = hTAAR1, amidines of this paper, from EC50, read-out: pEC50 (converted)
[11] = Figure 2, biguanides SET1 and SET2; cited from earlier work

Compound: COc1ccc(N2CCN(C(N)=NC(=N)N)CC2)cc1 [Compound 8a]
mTAAR1 EC50 (mTAAR1): inactive

Compound: Cl.N=C(N)N1CCN(c2ccc(F)cc2)CC1 [Compound 14, 4-(4-Fluorophenyl)piperazine-1-carboximidamide hydrochloride]
hTAAR1 Activity (hTAAR1 [1]; [7]): inactive
CC50 [2]: 94000 ± 6000 nM

Compound: Cl.N=C(N)N1CCN(c2ccc(Cl)cc2)CC1 [Compound 5, 4-(4-Chlorophenyl)piperazine-1-carboximidamide hydrochloride]
sympathomimetic effect [3]: a rise in the blood pressure
hTAAR1 Activity (hTAAR1 [1]; [7]): inactive
CC50 [2]: 95000 ± 3000 nM

Compound: N=C(N)NC(=N)NCc1ccccc1 [BIG10, 1-benzylbiguanide]
EC50 (hTAAR1 [4]; [8]): > 10000 nM
EC50 (mTAAR1): 780 nM

Compound: NC(N)=NC(N)=Nc1ccccc1Cl [BIG2]
EC50 (mTAAR1): 410 nM

Compound: Cl.N=C(N)N1CCN(c2cccc(Cl)c2)CC1 [Compound 4, 4-(3-Chlorophenyl)piperazine-1-carboximidamide hydrochloride]
sympathomimetic effect [3]: a rise in the blood pressure
Emax at 10 µM (hTAAR1 [1]): 35%
EC50 (hTAAR1 [1]; [9]): > 2000 nM
Therapeutic index (CC50/EC50) (Vero-76 cells): 45
CC50 [2]: 90000 ± 3000 nM

Compound: Cl.N=C(N)N1CCN(c2cccc(Cl)c2Cl)CC1 [Compound 15, 4-(2,3-Dichlorophenyl)piperazine-1-carboximidamide hydrochloride]
Emax at 10 µM (hTAAR1 [1]): 81%
EC50 (hTAAR1 [1]; [10]): 20 nM
Therapeutic index (CC50/EC50) (Vero-76 cells): 4100
CC50 [2]: 82000 ± 5000 nM

Compound: Cl.N=C(N)N1CCN(c2ccccc2Cl)CC1 [Compound 3, 4-(2-Chlorophenyl)piperazine-1-carboximidamide hydrochloride]
Emax at 10 µM (hTAAR1 [1]): 90%
EC50 (hTAAR1 [1]; [9]): 160 nM
Therapeutic index (CC50/EC50) (Vero-76 cells): 625
CC50 [2]: > 100000 nM

Compound: Cl.N=C(N)N1CCN(c2ccccn2)CC1 [Compound 10, 4-(Pyridin-2-yl)Piperazine-1-Carboximidamide Hydrochloride]
Emax at 10 µM (hTAAR1 [1]): 30%
EC50 (hTAAR1 [1]; [9]): > 2000 nM
Therapeutic index (CC50/EC50) (Vero-76 cells): 37
CC50 [2]: 74000 ± 5000 nM
melting point: 205 to 208 °C

melting point: 170 to 173 °C
Compound: N=C(N)N1CCN(c2cccc(C(F)(F)F)c2)CC1 (as salt: hydrochloride) [Compound 9, 4-[(3-Trifluoromethyl)phenyl]piperazine-1-carboximidamide hydrochloride]

Compound: COc1ccc(CN=C(N)N=C(N)N)cc1 [BIG17]
hTAAR1 EC50 (hTAAR1 [4]; [11]): inactive
mTAAR1 EC50 (mTAAR1): inactive

Compound: Cl.N=C(N)N1CCN(c2ccc(Cl)c(Cl)c2)CC1 [Compound 16, 4-(3,4-Dichlorophenyl)piperazine-1-carboximidamide hydrochloride]
Emax at 10 µM (hTAAR1 [1]): 49%
EC50 (hTAAR1 [1]; [9]): 71 nM
Therapeutic index (CC50/EC50) (Vero-76 cells): 1254
CC50 [2]: 89000 ± 4000 nM
melting point: 235 to 237 °C

Compound: CCc1[nH]nc(C(=O)Nc2ccc([C@H]3CNCCO3)cc2)c1C [(4-Aminophenyl)morpholino derivative]
hTAAR1 efficacy (hTAAR1 [4]; partial agonist; cited from earlier work): 42%

Compound: Cl.N#Cc1ccccc1N1CCN(C(=N)N)CC1 [Compound 12, 4-(2-Cyanophenyl)piperazine-1-carboximidamide hydrochloride]
hTAAR1 Activity (hTAAR1 [1]; [7]): inactive
CC50 [2]: 78000 ± 2000 nM
melting point: 236 to 238 °C

Compound: N=C(N)N=C(N)N1CCN(c2ccccc2)CC1 [Compound 1a, 1-phenyl-4-biguanylpiperazine]
EC50 (mTAAR1): 2380 nM

Compound: Cl.N=C(N)N1CCN(c2ccccc2F)CC1 [Compound 13, 4-(2-Fluorophenyl)piperazine-1-carboximidamide hydrochloride]
hTAAR1 Activity (hTAAR1 [1]; [7]): inactive
CC50 [2]: 87000 ± 5000 nM
melting point: 145 to 148 °C

Compound: NC1=N[C@H](c2ccc(Br)cc2)CO1 [Compound 27b]
pEC50 (hTAAR1 [4]; 2-aminooxazolines reported by Roche, Table S1; cited from earlier work): 5.00 M

Compound: COc1cccc(N2CCN(C(=N)N)CC2)c1.Cl [Compound 7, 4-(3-Methoxyphenyl)piperazine-1-carboximidamide hydrochloride]
Emax at 10 µM (hTAAR1 [1]): 32%
EC50 (hTAAR1 [1]; [9]): 244 nM
Therapeutic index (CC50/EC50) (Vero-76 cells): 357
CC50 [2]: 87000 ± 4000 nM

Compound: N=C(N)N=C(N)N1CCN(c2ncccn2)CC1 [Compound 10a]
hTAAR1 EC50 (hTAAR1 [4]; [11]): inactive
EC50 (mTAAR1): 9000 nM

Compound: NCCc1ccccc1 [β-PEA, β-phenylethylamine]
pEC50 (hTAAR1 [4]; hTAAR1; endogenous agonist, no reference given; cited from earlier work): 6.70 M

Compound: COc1ccc(N2CCN(C(=N)N)CC2)cc1.Cl [Compound 8, 4-(4-Methoxyphenyl)piperazine-1-carboximidamide hydrochloride]
hTAAR1 Activity (hTAAR1 [1]; [7]): inactive
CC50 [2]: 88000 ± 2000 nM

Compound: NC(N)=NC(N)=Nc1ccc(Cl)cc1 [BIG4]
hTAAR1 EC50 (hTAAR1 [4]; [11]): inactive
EC50 (hTAAR1 [4]; read-out: hTAAR1 EC50; Figure 2, biguanides SET1 and SET2; cited from earlier work): > 10000 nM
EC50 (mTAAR1): 2100 nM

Compound: N=C(N)N=C(N)N1CCN(c2ccccc2Cl)CC1 [Compound 3a]
EC50 (mTAAR1): 2660 nM

Compound: NC(N)=NC(N)=NCc1ccc(Cl)c(Cl)c1 [BIG14]
EC50 (mTAAR1): 36 nM

Compound: NC(N)=NC(N)=NCc1cccc(Cl)c1 [BIG12]
EC50 (mTAAR1): 97 nM

Compound: Cc1c(F)cccc1[C@H]1COC(N)=N1 [RO5263397]
AMES/MNT test [5]: negative
human hepatocyte clearance (human hepatocyte): acceptable

Compound: COc1ccccc1N1CCN(C(=N)N)CC1.Cl [Compound 6, 4-(2-Methoxyphenyl)piperazine-1-carboximidamide hydrochloride]
Emax at 10 µM (hTAAR1 [1]): 64%
EC50 (hTAAR1 [1]; [9]): 93 nM
Therapeutic index (CC50/EC50) (Vero-76 cells): 892
CC50 [2]: 83000 ± 5000 nM

Compound: COc1ccc(N=C(N)N=C(N)N)cc1 [BIG9]
hTAAR1 EC50 (hTAAR1 [4]; [11]): inactive
mTAAR1 EC50 (mTAAR1): inactive

Compound: Cc1ccc(NC(=N)N=C(N)N)cc1 [BIG8]
hTAAR1 EC50 (hTAAR1 [4]; [11]): inactive
EC50 (hTAAR1 [4]; [8]): > 10000 nM
EC50 (mTAAR1): 1700 nM

Compound: Cl.N=C(N)N1CCN(c2ccccc2)CC1 [Compound 1, 4-Phenylpiperazine-1-carboximidamide hydrochloride]
increase of the concentration of NE in the brain [6]: about 34.5%
increase of the concentration of NE in the heart [6]: ~42.7%
sympathomimetic effect [3]: a rise in the blood pressure
Emax at 10 µM (hTAAR1 [1]): 71%
EC50 (hTAAR1 [1]; [9]): 370 nM
Therapeutic index (CC50/EC50) (Vero-76 cells): 227
CC50 [2]: 84000 ± 5000 nM
melting point: 214 to 217 °C

Emax at 10 µM (hTAAR1 [1]; [7]): 80%
EC50 (hTAAR1 [1]; [9]): 64 nM
Compound: N=C(N)N1CCN(c2cccc(C(F)(F)F)c2)CC1 [Compound 9, 4-[(3-Trifluoromethyl)phenyl]piperazine-1-carboximidamide hydrochloride]
Therapeutic index (CC50/EC50) (Vero-76 cells): 1562
CC50 [2]: > 100000 nM

hTAAR1 Activity (hTAAR1 [1]; [7]): 100%
EC50 (hTAAR1 [1]; [9]): 66 nM
Compound: NCCc1ccc(O)cc1 [TYR, tyramine, reference compound]

Compound: Cl.N=C(N)N1CCN(c2ncccn2)CC1 [Compound 11, 4-(Pyrimidin-2-yl)piperazine-1-carboximidamide hydrochloride]
hTAAR1 Activity (hTAAR1 [1]; [7]): inactive
CC50 [2]: 64000 ± 2000 nM

Compound: Cc1ccccc1N1CCN(C(=N)N)CC1.Cl [Compound 2, 4-(o-Tolyl)piperazine-1-carboximidamide hydrochloride]
Emax at 10 µM (hTAAR1 [1]): 100%
EC50 (hTAAR1 [1]; [10]): 30.2 nM
Therapeutic index (CC50/EC50) (Vero-76 cells): 2667
CC50 [2]: 80000 ± 5000 nM
melting point: 159 to 162 °C
